Experimental data published in PubChem BioAssay (NCI).
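In this assay, cells in 96-well plates receive the compound at five concentrations for 48 hours. Endpoints are linearly interpolated between the surrounding concentrations. The concentration for 50% growth inhibition is given as GI50. At the TGI there is no net growth.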

What was measured:
Assay in all cases: growth of human tumour cells (NCI), 48 h
NCI-H226 lung = tested on: NCI-H226 lung
SF-295 CNS = tested on: SF-295 CNS
IGROV1 ovarian = tested on: IGROV1 ovarian
SK-OV-3 ovarian = tested on: SK-OV-3 ovarian
BT-549 breast = tested on: BT-549 breast
HCT-116 colon = tested on: HCT-116 colon
RPMI-8226 leukemia = tested on: RPMI-8226 leukemia
CAKI-1 renal = tested on: CAKI-1 renal
ACHN renal = tested on: ACHN renal
TK-10 renal = tested on: TK-10 renal
SNB-19 CNS = tested on: SNB-19 CNS
DU-145 prostate = tested on: DU-145 prostate
HS 578T breast = tested on: HS 578T breast
HT29 colon = tested on: HT29 colon
RXF 393 renal = tested on: RXF 393 renal
HOP-92 NSCLC = tested on: HOP-92 NSCLC
UACC-257 melanoma = tested on: UACC-257 melanoma
OVCAR-5 ovarian = tested on: OVCAR-5 ovarian
KM12 colon = tested on: KM12 colon
SK-MEL-2 melanoma = tested on: SK-MEL-2 melanoma
UO-31 renal = tested on: UO-31 renal
MCF7 breast = tested on: MCF7 breast
OVCAR-4 ovarian = tested on: OVCAR-4 ovarian
OVCAR-3 ovarian = tested on: OVCAR-3 ovarian
SW-620 colon = tested on: SW-620 colon
PC-3 prostate = tested on: PC-3 prostate
LOX IMVI melanoma = tested on: LOX IMVI melanoma
CCRF-CEM leukemia = tested on: CCRF-CEM leukemia
MDA-MB-435 = tested on: MDA-MB-435
NCI-H522 lung = tested on: NCI-H522 lung
SF-539 CNS = tested on: SF-539 CNS
SR leukemia = tested on: SR leukemia
HCT-15 colon = tested on: HCT-15 colon
786-0 renal = tested on: 786-0 renal
SF-268 CNS = tested on: SF-268 CNS
U251 CNS = tested on: U251 CNS
T-47D breast = tested on: T-47D breast
NCI-H460 lung = tested on: NCI-H460 lung
MOLT-4 leukemia = tested on: MOLT-4 leukemia
NCI/ADR-RES ovarian = tested on: NCI/ADR-RES ovarian
A549 NSCLC = tested on: A549 NSCLC
K-562 leukemia = tested on: K-562 leukemia
HCC-2998 colon = tested on: HCC-2998 colon
M14 melanoma = tested on: M14 melanoma
HL-60(TB) leukemia = tested on: HL-60(TB) leukemia
HOP-62 NSCLC = tested on: HOP-62 NSCLC
A498 renal = tested on: A498 renal
UACC-62 melanoma = tested on: UACC-62 melanoma
MALME-3M melanoma = tested on: MALME-3M melanoma
SK-MEL-5 melanoma = tested on: SK-MEL-5 melanoma
SN12C renal = tested on: SN12C renal
EKVX NSCLC = tested on: EKVX NSCLC
COLO 205 colon = tested on: COLO 205 colon
SNB-75 CNS = tested on: SNB-75 CNS
SK-MEL-28 melanoma = tested on: SK-MEL-28 melanoma
NCI-H23 lung = tested on: NCI-H23 lung
MDA-MB-231 breast = tested on: MDA-MB-231 breast

## COC1=C(OC)C(=O)C(CCCCCCCCCC[P+](c2ccccc2)(c2ccccc2)c2ccccc2)=C(C)C1=O
NCI-H226 lung
  GI50: 284 nM
  TGI: 915 nM
SF-295 CNS
  GI50: 189 nM
  TGI: 585 nM
IGROV1 ovarian
  GI50: 187 nM
  TGI: 1870 nM
SK-OV-3 ovarian
  GI50: 255 nM
  TGI: 869 nM
BT-549 breast
  GI50: 249 nM
  TGI: 1090 nM
HCT-116 colon
  GI50: 135 nM
  TGI: 329 nM
RPMI-8226 leukemia
  GI50: 24.7 nM
  TGI: 143 nM
CAKI-1 renal
  GI50: 853 nM
  TGI: 3270 nM
ACHN renal
  GI50: 1070 nM
  TGI: 3720 nM
TK-10 renal
  GI50: 303 nM
  TGI: 1380 nM
SNB-19 CNS
  GI50: 125 nM
  TGI: 1300 nM
DU-145 prostate
  GI50: 351 nM
  TGI: 1730 nM
HS 578T breast
  GI50: 204 nM
  TGI: 1620 nM
HT29 colon
  GI50: 194 nM
  TGI: 1050 nM
RXF 393 renal
  GI50: 293 nM
  TGI: 10700 nM
HOP-92 NSCLC
  GI50: 97.7 nM
  TGI: 504 nM
UACC-257 melanoma
  GI50: 150 nM
  TGI: 931 nM
OVCAR-5 ovarian
  GI50: 361 nM
  TGI: 1410 nM
KM12 colon
  GI50: 145 nM
  TGI: 884 nM
SK-MEL-2 melanoma
  GI50: 744 nM
  TGI: 3510 nM
UO-31 renal
  GI50: 1670 nM
  TGI: 3430 nM
MCF7 breast
  GI50: 42 nM
  TGI: 532 nM
OVCAR-4 ovarian
  GI50: 166 nM
  TGI: 2860 nM
OVCAR-3 ovarian
  GI50: 219 nM
  TGI: 1100 nM
SW-620 colon
  GI50: 334 nM
  TGI: 4910 nM
PC-3 prostate
  GI50: 130 nM
  TGI: 4040 nM
LOX IMVI melanoma
  GI50: 299 nM
  TGI: 1550 nM
CCRF-CEM leukemia
  GI50: 107 nM
  TGI: 1180 nM
MDA-MB-435
  GI50: 193 nM
  TGI: 1280 nM
NCI-H522 lung
  GI50: 170 nM
  TGI: 795 nM
SF-539 CNS
  GI50: 256 nM
  TGI: 1280 nM
SR leukemia
  GI50: > 100000 nM
  TGI: > 100000 nM
HCT-15 colon
  GI50: 1330 nM
  TGI: 3460 nM
786-0 renal
  GI50: 269 nM
  TGI: 530 nM
SF-268 CNS
  GI50: 345 nM
  TGI: 1440 nM
U251 CNS
  GI50: 104 nM
  TGI: 1170 nM
T-47D breast
  GI50: 48.1 nM
  TGI: 1040 nM
NCI-H460 lung
  GI50: 266 nM
  TGI: 1160 nM
MOLT-4 leukemia
  GI50: 376 nM
  TGI: 7780 nM
NCI/ADR-RES ovarian
  GI50: 3130 nM
  TGI: 20300 nM
A549 NSCLC
  GI50: 337 nM
  TGI: 5140 nM
K-562 leukemia
  GI50: 244 nM
HCC-2998 colon
  GI50: 247 nM
  TGI: 1380 nM
M14 melanoma
  GI50: 366 nM
  TGI: 1700 nM
HL-60(TB) leukemia
  GI50: 59.8 nM
  TGI: 409 nM
HOP-62 NSCLC
  GI50: 194 nM
  TGI: 491 nM
A498 renal
  GI50: 371 nM
  TGI: 1790 nM
UACC-62 melanoma
  GI50: 312 nM
  TGI: 1730 nM
MALME-3M melanoma
  GI50: 206 nM
  TGI: 908 nM
SK-MEL-5 melanoma
  GI50: 71.3 nM
  TGI: 222 nM
SN12C renal
  GI50: 213 nM
  TGI: 1320 nM
EKVX NSCLC
  GI50: 137 nM
  TGI: 4740 nM
COLO 205 colon
  GI50: 99.9 nM
  TGI: 279 nM
SNB-75 CNS
  GI50: 211 nM
  TGI: 925 nM
SK-MEL-28 melanoma
  GI50: 475 nM
  TGI: 2170 nM
NCI-H23 lung
  GI50: 160 nM
  TGI: 930 nM
MDA-MB-231 breast
  GI50: 265 nM
  TGI: 1480 nM
